Experiment [1] relates to mammalian TRPA1s. The note with it: conserved cysteine-independent; cited from earlier work.
Experiment [2] addresses T1, dTRPA1 (Drosophila melanogaster, UniProt Q7Z020).
T1 sequence (Q7Z020 1-1197): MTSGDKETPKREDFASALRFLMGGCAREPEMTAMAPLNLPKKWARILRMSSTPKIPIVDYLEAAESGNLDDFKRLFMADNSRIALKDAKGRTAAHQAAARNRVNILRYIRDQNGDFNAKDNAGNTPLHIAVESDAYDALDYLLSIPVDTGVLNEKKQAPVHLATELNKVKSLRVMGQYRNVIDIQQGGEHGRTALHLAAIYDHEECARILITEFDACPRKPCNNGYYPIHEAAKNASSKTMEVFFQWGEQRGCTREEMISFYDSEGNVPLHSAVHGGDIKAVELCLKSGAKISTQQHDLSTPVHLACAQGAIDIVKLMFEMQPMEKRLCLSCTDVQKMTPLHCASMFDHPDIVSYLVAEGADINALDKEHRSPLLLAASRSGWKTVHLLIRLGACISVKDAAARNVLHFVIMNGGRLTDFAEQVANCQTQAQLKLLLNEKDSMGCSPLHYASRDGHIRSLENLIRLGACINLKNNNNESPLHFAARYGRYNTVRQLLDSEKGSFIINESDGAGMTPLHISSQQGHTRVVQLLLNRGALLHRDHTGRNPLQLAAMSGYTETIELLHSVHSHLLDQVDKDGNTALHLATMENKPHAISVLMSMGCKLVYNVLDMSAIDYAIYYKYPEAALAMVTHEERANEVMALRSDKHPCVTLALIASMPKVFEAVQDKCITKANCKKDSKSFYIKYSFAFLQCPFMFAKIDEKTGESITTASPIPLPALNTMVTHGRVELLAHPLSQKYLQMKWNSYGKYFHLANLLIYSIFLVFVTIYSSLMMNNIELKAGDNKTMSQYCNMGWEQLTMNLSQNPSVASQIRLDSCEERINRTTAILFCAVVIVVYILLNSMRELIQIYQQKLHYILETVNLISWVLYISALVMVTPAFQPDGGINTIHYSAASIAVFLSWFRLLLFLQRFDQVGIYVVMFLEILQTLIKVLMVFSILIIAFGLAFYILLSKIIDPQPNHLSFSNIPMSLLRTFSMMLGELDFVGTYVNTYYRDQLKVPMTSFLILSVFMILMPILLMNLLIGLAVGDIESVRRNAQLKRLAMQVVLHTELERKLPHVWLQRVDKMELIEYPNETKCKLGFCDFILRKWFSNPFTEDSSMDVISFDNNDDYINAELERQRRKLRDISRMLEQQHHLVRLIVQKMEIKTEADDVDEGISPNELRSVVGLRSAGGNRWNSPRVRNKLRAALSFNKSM
Description: Two-electrode voltage clamping on Xenopus laevis oocytes expressing dTRPA1. It is filed as cell-based. Background: In two-electrode clamp one electrode senses voltage and the other passes current.

The test system of experiment [3] is Drosophila flies. Description: Proboscis extension response (PER) behavioral assay. It is filed as in vivo, Drosophila melanogaster.
The subject of experiment [4] is uninjected oocytes. Description: Two-electrode voltage clamping on uninjected oocytes. It is filed as cell-based, Xenopus laevis. The note with it: 3 mM AITC, 1 mM CA, 0.1 mM NMM.
Experiment [5] addresses T1, dTRPA1. The conditions noted are these: cited from earlier work.
For experiment [6], the system named is agTRPA1. The note with it: cited from earlier work.
The mark [7] stands for this setting: wild-type dTRPA1 in Xenopus oocytes.

Read-outs that look alike come from different tables or passages of the source.

Turning to 2-aminoethoxydiphenyl borate [2-APB], the “Activity on mammalian TRPA1s” value in experiment [1] is “agonists”.

As for `CCN(CC)C(=O)c1cccc(C)c1` [DEET, N,N-diethyl-m-toluamide], the “Activation of dTRPA1” value in experiment [2] (setting [7]) was “failed to activate”.

Take `CCCCN(CCC(=O)OCC)C(C)=O` [IR-3535]: the “Activation of dTRPA1” value in experiment [2] (setting [7]) is given as “failed to activate”.

Regarding `CN1C(=O)C=CC1=O` [NMM, N-methyl-maleimide], in experiment [3] (ingestion permitted), the “Effect on PER in dTrpA1 loss-of-function mutants” value is reported as “no reduction”. In addition, the “Acceptance on first offering” value in experiment [3] (first of five tastant offerings) is reported as “usually accepted”. Besides, in experiment [3] (ingestion-independent PER assay of Al-Anzi et al.), the “Effect on ingestion in previously published ingestion-independent PER assay” value is reported as “no effect”. In addition, the “Effect on PER in painless mutants” value in experiment [3] (painless mutant flies, ingestion permitted) is listed as “significantly inhibited”. For the same molecule, in experiment [3] (tissue-specific dTRPA1 RNAi with Dll-Gal4, MJ94-Gal4 or Gr66a-Gal4, 10 mM NMM in 350 mM sucrose), the “Change of the compound's effect on PER upon dTRPA1 knockdown” value is on record as “robustly reduced”. For the same molecule, the “Effect on proboscis extension response (PER) / feeding” value in experiment [3] (wild type flies, ingestion permitted, 350 mM sucrose with 2 mM AITC, 10 mM NMM or 6 mM CA) is listed as “robustly inhibited”. For the same molecule, the “Response of uninjected oocytes” value in experiment [4] is given as “did not respond”.

For the molecule `Cn1c(=O)c2c(ncn2C)n(C)c1=O` [caffeine], the “Effect on PER in dTrpA1 loss-of-function mutants” value in experiment [3] (ingestion permitted) is on record as “inhibited”. Also, the “Effect on PER when only leg contact with food permitted” value in experiment [3] (wild type flies, tastant contacts only legs, 350 mM sucrose with 100 mM caffeine, 2 mM AITC, 10 mM NMM or 6 mM CA) is “robustly inhibited”.

Consider `CC1(C)[C@H](C(=O)O[C@H](C#N)c2cccc(Oc3ccccc3)c2)[C@@H]1C=C(Br)Br` [deltamethrin], for which, in experiment [2], the “Activation of dTRPA1” value was “failed to activate”.

As to `CN1CCCC1c1cccnc1` (stereo not shown) [nicotine], in experiment [2], the “Activation of dTRPA1” value is given as “did not activate” and the “Response of dTRPA1 expressing oocytes” value is on record as “did not respond”. In addition, the “Activity on mammalian TRPA1s” value in experiment [1] is given as “agonists”.

Regarding `N.N.N.N.N.N.N.N.N.N.N.N.N.N.[Cl-].[Cl-].[Cl-].[Cl-].[Cl-].[Cl-].[O-2].[O-2].[Ru+3].[Ru+3].[Ru+4]` [ruthenium red], the “Inhibition of agonist-elicited currents” value in experiment [2] (100 μM ruthenium red applied) was “inhibited”. The “Inhibition of warmth-activated dTRPA1 currents” value in experiment [5] is “partially inhibits”. For the same molecule, the “Inhibition of warmth-activated agTRPA1 currents” value in experiment [6] is “partially inhibits”.

Values taken from patent US9986740B2, “Methods of identifying insect-TRPA1 modulators” (BRANDEIS UNIVERSITY, priority 2010, dated 2018).
